# Literature values, collected in patent publication US20200181654A1, “AGLYCONE PRODUCTION PROMOTER” (priority 2016, published 2020).
# Settings: after oral ingestion
row,SMILES,"maximum values of the plasma concentrations of the aglycones, relative to ingestion of the glycosides (daidzin, genistin)"
1,O=c1c(-c2ccc(O)cc2)coc2cc(O)ccc12 [daidzein],five times or greater
2,O=c1c(-c2ccc(O)cc2)coc2cc(O)cc(O)c12 [genistein],five times or greater
